Experimental data published in the METLIN SMRT retention time set (Domingo-Almenara et al. 2019).

Experiment: gradient 5% acetonitrile 3 min, to 50% in 2 min, to 85% in 15 min, held 3 min, 100 µL/min
Conditions: column: Zorbax Extend-C18 2.1 x 50 mm; eluents: water / acetonitrile, 0.1% formic acid
Summary of the method: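 Pure standards were analyzed in mixtures of ~100 molecules using HPLC coupled to a quadrupole time-of-flight mass spectrometer, in both positive and negative ionization mode. Separation used a Zorbax Extend-C18 column (2.1 × 50 mm, 1.8 μm) at 100 μL/min, with water and acetonitrile each containing 0.1% formic acid. Dead and dwell volumes were 40 μL and 900 μL, and data were collected over 3 months. Retention time was read from computationally picked adduct peaks, each inspected manually.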

| Structure (SMILES) | RP-LC retention time [s] |
| --- | --- |
| CCOC(=O)c1c(C)oc2nc(C)nc(NCc3ccc(OC)cc3)c12 | 1080 |
| CCS(=O)(=O)N1CC(=O)N(c2ccc(Cl)cc2)C(C)(C(=O)NCc2ccc(F)cc2)C1 (centres undefined) | 840 |
| Cc1ccc(-c2noc(C3CCCN3S(=O)(=O)c3cccc(Cl)c3C)n2)cc1 (centres undefined) | 1270 |
| C=C(C)Cn1c(COc2ccccc2)nc2ccccc21 | 718 |
| Cc1nn(C2CCS(=O)(=O)C2)c(C)c1N1CCN(CC(=O)Nc2ccccc2F)CC1 (centres undefined) | 558 |
| COc1cccc(CNC(=O)C2(C)CCCN(C(=O)Nc3cccc(Br)c3)C2)c1 (centres undefined) | 993 |
| O=S(=O)(c1cc(Cl)ccc1Cl)N1CCc2nc(-c3ccc(F)cc3)ncc2C1 | 1240 |
| O=C(c1ccco1)N1CCC(OC2CCN(Cc3ccccc3)CC2)CC1 | 595 |
| C=Cc1ccc(CN2C(=O)CCC2c2nc(C)no2)cc1 (centres undefined) | 731 |
| Cc1ccc(-c2nnc(-c3nc(N4CCN(c5ccccn5)CC4)c4ccccc4n3)o2)cc1 | 676 |
| Cc1nnc(NC(=O)c2ccc(N3CCCC3)nn2)s1 | 594 |
| O=C(Nc1ccccc1)N1CC(c2nc3ccccc3[nH]2)C1 | 548 |
| Cc1ccc(NC(=O)N2CCC(n3cnc4ccc(F)cc4c3=O)CC2)cc1F | 842 |
| N#Cc1ccc(O[C@@H]2c3ccccc3C[C@H]2N2CCC[C@@H](N)C2)c(Cl)c1 | 707 |
| COC(=O)c1ccccc1NC(=O)C1CCCN(c2nc3c(s2)c(C)nn3-c2ccccc2)C1 (centres undefined) | 1380 |
| Cc1ccc(NC(=O)C2CCN(S(=O)(=O)c3ccc4c(c3)CCCC(=O)N4)CC2)cc1N(C)C | 698 |
| CC(=O)N1CCOc2ccc(S(=O)(=O)N3CCCC3C(=O)Nc3nccs3)cc21 (centres undefined) | 735 |
| Cc1cnc(C2CCOCC2)n1CC1CN(C(=O)C2CC=CC2)C1 | 568 |
| O=C(Cn1c(=O)c2cc(C3CC3)nn2c2ncccc21)NC1CCCC1 | 705 |
| Cc1ccc(NC(=O)C2Oc3ccccc3NC2=O)c(Br)c1 (centres undefined) | 852 |
| O=C(NCc1nc2ccccc2n1CC(=O)N1CCCCCC1)c1ccco1 | 627 |
| O=C(NC1CCCCC1)c1ccc(-c2csc(C3CC3)n2)cc1 | 1050 |
| Cc1nc(CNC(=O)[C@H]2CCCN2S(=O)(=O)c2ccc3c(c2)oc(=O)n3C)cs1 | 655 |

| Structure (SMILES) | RP-LC retention time [s] |
| --- | --- |
| O=C(Nc1ccc(F)cc1Cl)c1cnc(-c2ccc(F)cc2)nc1-c1ccncc1 | 951 |
| CCC1Oc2ccc(S(=O)(=O)N3CCC(C(=O)Nc4ccc(Cl)cc4)CC3)cc2NC1=O (centres undefined) | 950 |
| CN(C)c1ccc2ncc(=O)n(C)c2n1 | 728 |
| O=S(=O)(c1ccc(Cl)cc1)N1CC(F)(F)C[C@H]1CN1CCc2ccccc2C1 | 647 |
| O=C(CN1CCN(c2ccccn2)CC1)N1c2ccccc2CCc2ccccc21 | 636 |
| COc1ccc(-c2nc3ncccn3c2NC2CCCCCC2)cc1OC | 756 |
| O=C1C2N=NN(Cc3nc(-c4ccccc4Br)no3)C2C(=O)N1c1ccc2c(c1)CCC2 (centres undefined) | 1060 |
| Clc1ccccc1-c1nnc(CN2CCN(c3ccccn3)CC2)o1 | 602 |
| OCC1O[C@H](O)C(Cl)C(O)C1O (some centres undefined) | 658 |
| O=C(NCCc1c[nH]c2ccc(Cl)cc12)c1cc(-c2cccnc2)nc2ccccc12 | 805 |
| O=C(Cc1ccc(NS(=O)(=O)c2ccc3c(c2)OCCO3)cc1)NC1CC1 | 678 |
| COC(=O)c1ccccc1S(=O)(=O)N1CCN(Cc2nnnn2-c2ccccc2)CC1 | 812 |
| O=C(c1cc(-c2cccnc2)n[nH]1)N1CCC(C(=O)N2CCN(c3ccc(Cl)cc3)CC2)CC1 | 694 |
| CC(C)NC(=O)c1ccc2c(c1)ncn2CCNC(=O)Nc1ccc(Br)cc1F | 651 |
| CCn1ccc(NC(=O)NC(C)(C)C)n1 | 705 |
| COc1cc2c(cc1OC)C(C(=O)N1CCC(C(N)=O)CC1)C(c1cccs1)N(C)C2=O (centres undefined) | 596 |
| Cc1nnc2cc(N3CCN(S(=O)(=O)c4ccc(F)cc4)CC3)cnn12 | 670 |
| Cc1nn2c(CNC(=O)c3ccc(F)c(F)c3)c(C)nc2s1 | 634 |
| CCOC(=O)C1CCN(C(=O)CCn2c(=O)oc3ccccc32)CC1 | 708 |
| O=C(CC(=O)Nc1ccc(F)cc1Cl)Nc1ccc2nc3n(c(=O)c2c1)CCCCC3 | 814 |
| N#Cc1cccc(NC(=O)C2CCN(S(=O)(=O)c3ccc4[nH]c(=O)ccc4c3)CC2)c1 | 706 |
| COC(=O)[C@H]1[C@H]2C[C@H]3c4[nH]c5cc(OC)ccc5c4CCN3C[C@H]2C[C@@H](OC(=O)c2cc(OC)c(OC)c(OC)c2)[C@@H]1OC | 913 |
| O=C(NCc1ccccc1)N1CCN(Cc2nc3ccc(Cl)cc3o2)CC1 | 723 |

| Structure (SMILES) | RP-LC retention time [s] |
| --- | --- |
| O=C(C1CCCN(c2nccnc2Oc2ccccc2)C1)N1CCN(c2ccccc2Cl)CC1 (centres undefined) | 1240 |
| O=C(Nc1nnc(C2CCCCC2)o1)c1c[nH]c2ccccc12 | 714 |
| Cc1nc(N2CCN(c3ccccc3F)CC2)nc2c1C(=O)CC(c1ccccc1O)C2 (centres undefined) | 1190 |
| CC(C)CC(=O)Nc1cnc(N2CCCCCC2)nc1 | 823 |
| CCCCn1c(=O)c2ccccc2n(Cc2nc(-c3ccc(Br)cc3)no2)c1=O | 1300 |
| CC(C)CN1CCn2cc(S(=O)(=O)Nc3ccc(F)cc3)cc2C1=O | 1020 |
| CCn1c(C)c(CCC(=O)NCCOC)c(=O)n2nc(-c3ccccc3)nc12 | 665 |
| Cc1ccc(CNC(=O)C2CCCN(C(=O)c3[nH]c(C)cc3C)C2)cc1 (centres undefined) | 804 |
| N#C/C(=C\c1ccc2ccccc2c1)C(=O)c1ccccc1 | 1090 |
| CCn1cc(C(=O)O)c(=O)c2ccc(Cc3ccccc3)nc21 | 1010 |
| CC(C)CCN1CCC(N2CCN(S(=O)(=O)c3ccccc3F)CC2)C1=O (centres undefined) | 662 |
| CCOC(=O)CC(=O)Nc1cc2c(cc1N1CCOCC1)n(C)c(=O)n2C | 660 |
| CCC(=O)N1CCc2cc(N3CC(C(=O)Nc4cc(Cl)ccc4OC)CC3=O)ccc21 (centres undefined) | 828 |
| Cc1ccc(C(=O)N2CCC(CC(=O)NCCc3c[nH]c4ccc(Cl)cc34)CC2)cc1 | 828 |
| CSc1cccc(NC(=O)N2CCC(N3CCN(Cc4cccc(F)c4)C(=O)C3=O)CC2)c1 | 779 |
| CCc1c(C2CCN(C(=O)c3ccnn3CC)CC2)noc1N | 652 |
| COc1ccccc1OCc1nn2c(-c3ccccn3)nnc2s1 | 740 |
| COCCNc1c(-c2ccc(C)cc2)nc2sc(C(=O)N(C)C)c(C)n12 | 698 |
| O=C(NC1CCCc2ccccc21)C1CCN(C(=O)C2Sc3ccccc3NC2=O)CC1 (centres undefined) | 793 |
| CCOC(=O)Cc1ccc(NC(=O)N2CCc3cn(C)c4cccc(c34)C2)cc1 | 749 |
| Cc1ccc(CS(=O)(=O)N2CCC(CN3CCCCCC3)CC2)cc1C | 723 |
| O=C(O)CN1CCCc2nc(-c3ccccc3)ncc2C1=O | 716 |
| CCCS(=O)(=O)N1CCC(OCCOCc2ccccc2)CC1 | 937 |

| Structure (SMILES) | RP-LC retention time [s] |
| --- | --- |
| O=C(c1cc(-c2ccccc2)n[nH]1)N1CCN(S(=O)(=O)c2ccc(F)cc2)CC1 | 840 |
| CC(C)n1c(=O)c(NCc2ccc(F)cc2Cl)nc2ccncc21 | 686 |
| Cc1ccccc1NC(=O)N(C)CC1CCOC1 (centres undefined) | 704 |
| Cc1ccc(CNC(=O)CCc2conc2-c2ccccc2)cc1 | 896 |
| Cc1nn2c(CNS(=O)(=O)c3ccc(F)c(C)c3)c(-c3ccccc3)nc2s1 | 898 |
| Cc1cc(CNC(=O)C2CCCC2)c(C)o1 | 762 |
| COCCc1noc(C2CN(C(=O)c3ocnc3C)C2)n1 | 595 |
| COc1ccccc1N1CCN(CCNS(=O)(=O)c2ccc(F)c(C)c2)CC1 | 608 |
| Cc1cc(Cl)ccc1S(=O)(=O)N1CCC(OC2CCN(CC3CC3)C2=O)CC1 (centres undefined) | 975 |
| Cc1cc(C)cc(NC(=O)NC2CCN(c3ccc(F)c(C)c3)C2=O)c1 (centres undefined) | 874 |
| COc1ccc(-c2nc3ncccn3c2Nc2ccc(C)cc2C)cc1 | 800 |
| CC(=O)N1CCC(C(=O)N2CCCn3cc(-c4ccccc4)nc32)CC1 | 602 |
| Cn1cc(CCNS(=O)(=O)c2cccc3nsnc23)c2cccnc21 | 671 |
| O=C(NC1CCN(c2cc(-c3cccs3)[nH]n2)C1)c1cccnc1 (centres undefined) | 618 |
| CCc1ccc(C(=O)N2CCN(C(=O)c3nnn4c3COC(c3ccc(C)cc3)C4)CC2)cc1 (centres undefined) | 1000 |
| CCOc1ccc(CNC(=O)C2CCCN(C(=O)c3[nH]c(C)c(C(=O)OC)c3C)C2)cc1 (centres undefined) | 751 |
| O=c1n(Cc2cccc(Cl)c2)nc2c(S(=O)(=O)N3CCCC3)cccn12 | 882 |
| CCn1cc(-c2nc(C)c(C(=O)NCc3cccc(F)c3)s2)c2cccnc21 | 947 |
| Cc1ccc(-c2noc(-c3ccccc3S(=O)(=O)N3CCN(c4ccccn4)CC3)n2)cc1 | 862 |
| O=C(Cc1nnc(-c2ccc3ncccc3c2)o1)N1CCN(C2CCCCC2)CC1 | 574 |
